17 compounds from patent US9399649B2, “Compounds for treating spinal muscular atrophy” (PTC Therapeutics Inc., priority 2012, dated 2016) can be followed below.

For data set [1], the system named is Smn protein. Description: Smn protein assay in cultured cells (SMN HTRF). The data set is classed as cell-based, human. Conditions: SMA patient fibroblast cells (GM03813), 48 hours; for EC1.5x for Smn protein expression: 7-point concentration curve, concentration producing 1.5 times Smn protein vs DMSO vehicle; for maximum fold (Fold) increase of Smn protein: 7-point concentration data, relative to vehicle control. Summed up: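 SMA patient fibroblasts, 5,000 per well in DMEM-10% FBS, exposed 48 h at 37° C. to a 7-point, 3.16-fold compound series in triplicate. RIPA lysates read by SMN HTRF (665/620 nm, overnight at room temperature); ΔF over blank expressed as fold of vehicle.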
Background: In TR-FRET formats the signal depends on donor and acceptor labels being close together.

The test system of data set [2] is full length SMN2 minigene mRNA containing SMN2 exon 7. Put plainly: SMN2 minigene mRNA splicing RT-qPCR assay in cultured cells. It counts as cell-based, human. Conditions: Homo sapiens, HEK293-H; HEK293H cells stably transfected with SMN2-A minigene, 24 hours, 7-point concentration curve; concentration giving 1.5-fold full length SMN2 mRNA vs vehicle; read-out: EC1.5x for production of full length SMN2 mRNA. Summed up: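 HEK293H cells stably carrying SMN2-A minigene treated 24 h (37 °C) with compound, 7-point 3.16-fold dilution, duplicates. Multiplex RT-qPCR on lysate with exon 7/luciferase primers and exon 7–8 junction probe (minigene-specific). Full-length transcript normalised to GAPDH by modified ΔΔCt, expressed relative to vehicle-treated cells.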
In general terms: In qPCR the cycle at which signal appears reflects the starting amount.

The melting point is the temperature, or range, at which the solid turns liquid.

In the case of `CCN1CCN(c2ccc3cc(-c4cc5c(C)nc(C)cn5c4)oc(=O)c3c2)CC1` [Cpd 77, 3-(1,3-dimethylpyrrolo[1,2-a]pyrazin-7-yl)-7-(4-ethylpiperazin-1-yl)-1H-isochromen-1-one], the melting point was 202 to 204 °C. For the same compound, in data set [1], the “EC1.5x for Smn protein expression” value is “*** (an EC1.5× between >0.3 nM and ≦1 nM is indicated by three stars (***))”; the “maximum fold (Fold) increase of Smn protein” value (“maximum fold (Fold) increase” for short) was “*** (a fold increase between >1.35 and ≦1.5 is indicated by three stars (***))”. Also, in data set [2], the EC (1.5-fold) was no more than 0.1 µM.
Compound `Cc1nc2cc(-c3cc4ccc(N5CCNCC5)cc4c(=O)o3)ccc2s1` [Cpd 106, 3-(2-methyl-1,3-benzothiazol-5-yl)-7-(piperazin-1-yl)-1H-isochromen-1-one] returned a melting point of 229 to 235 °C. The “maximum fold (Fold) increase” value in data set [1] is recorded as “* (A maximum fold increase of ≦1.2 is indicated by one star (*))”. The EC (1.5-fold) in data set [2] was in the range of 1 to 3 µM.
Compound `Cc1cn2cc(-c3cc4ccc(N5C[C@@H](C)N(C)[C@@H](C)C5)cc4c(=O)o3)nc2c(C)n1` [Cpd 149, 3-(6,8-dimethylimidazo[1,2-a]pyrazin-2-yl)-7-[(3R,5S)-3,4,5-trimethylpiperazin-1-yl]-1H-isochromen-1-one] came in with a melting point of 261 to 266 °C. In addition, in data set [1], the “EC1.5x for Smn protein expression” value is on record as “**** (an EC1.5×≦0.3 nM is indicated by four stars (****))” and the “maximum fold (Fold) increase” value is given as “***** (a fold increase >1.65 is indicated by five stars (*****))”. Further, in data set [2], the EC (1.5-fold) was no more than 0.1 µM.
In the same order, the values of `Cc1cn2cc(-c3cc4ccc(N5CCN6CCC[C@@H]6C5)cc4c(=O)o3)cc2c(C)n1` [Cpd 81, 3-(1,3-dimethylpyrrolo[1,2-a]pyrazin-7-yl)-7-[(8aR)-hexahydropyrrolo[1,2-a]pyrazin-2(1H)-yl]-1H-isochromen-1-one] are 218 to 220 °C, “**** (an EC1.5×≦0.3 nM is indicated by four stars (****))”, “***** (a fold increase >1.65 is indicated by five stars (*****))” and no more than 0.1 µM.
As for `CCc1nc(C)cn2cc(-c3cc4ccc(N5C[C@@H](C)N(C)[C@@H](C)C5)cc4c(=O)o3)nc12` [Cpd 158, 3-(8-ethyl-6-methylimidazo[1,2-a]pyrazin-2-yl)-7-[(3R,5S)-3,4,5-trimethylpiperazin-1-yl]-1H-isochromen-1-one], the melting point lay in the range of 235 to 238 °C. Further, in data set [1], the “EC1.5x for Smn protein expression” value is “**** (an EC1.5×≦0.3 nM is indicated by four stars (****))” and the “maximum fold (Fold) increase” value is “***** (a fold increase >1.65 is indicated by five stars (*****))”. Moreover, the EC (1.5-fold) in data set [2] is no more than 0.1 µM.
In turn, `Cc1cn2cc(-c3cc4ccc(N5CCN6CCC[C@@H]6C5)cc4c(=O)o3)nc2cn1` [Cpd 68, 7-[(8aR)-hexahydropyrrolo[1,2-a]pyrazin-2(1H)-yl]-3-(6-methylimidazo[1,2-a]pyrazin-2-yl)-1H-isochromen-1-one] yielded a melting point of 255 to 257 °C. In data set [1], the “EC1.5x for Smn protein expression” value was “* (An EC1.5× for Smn protein expression between >3 μM and <10 μM is indicated by one star (*))”; the “maximum fold (Fold) increase” value was “**** (a fold increase between >1.5 and ≦1.65 is indicated by four stars (****))”. The EC (1.5-fold) in data set [2] is no more than 0.1 µM.
In turn, `Cc1cn2cc(-c3cc4ccc(N5CCN(C)CC5)cc4c(=O)o3)nc2cn1` [Cpd 122, 3-(6-methylimidazo[1,2-a]pyrazin-2-yl)-7-(4-methylpiperazin-1-yl)-1H-isochromen-1-one] showed a melting point of 279 to 285 °C. Besides, in data set [1], the “EC1.5x for Smn protein expression” value is “**** (an EC1.5×≦0.3 nM is indicated by four stars (****))” and the “maximum fold (Fold) increase” value was “***** (a fold increase >1.65 is indicated by five stars (*****))”. The EC (1.5-fold) in data set [2] was no more than 0.1 µM.
Compound `COCCN1CCN(c2ccc3cc(-c4cn5cc(C)nc(C)c5n4)oc(=O)c3c2)C[C@H]1C` [Cpd 145, 3-(6,8-dimethylimidazo[1,2-a]pyrazin-2-yl)-7-[(3R)-4-(2-methoxyethyl)-3-methylpiperazin-1-yl]-1H-isochromen-1-one] gave a melting point of 205 to 210 °C. In data set [1], the “EC1.5x for Smn protein expression” value is “**** (an EC1.5×≦0.3 nM is indicated by four stars (****))” and the “maximum fold (Fold) increase” value is “***** (a fold increase >1.65 is indicated by five stars (*****))”. Also, the EC (1.5-fold) in data set [2] is no more than 0.1 µM.
The compound `Cc1cn2cc(-c3cc4ccc(N5CCN(CCO)CC5)cc4c(=O)o3)cc2c(C)n1` [Cpd 79, 3-(1,3-dimethylpyrrolo[1,2-a]pyrazin-7-yl)-7-[4-(2-hydroxyethyl)piperazin-1-yl]-1H-isochromen-1-one] registered a melting point of 240 to 242 °C. In addition, in data set [1], the “EC1.5x for Smn protein expression” value is reported as “**** (an EC1.5×≦0.3 nM is indicated by four stars (****))”; the “maximum fold (Fold) increase” value was “**** (a fold increase between >1.5 and ≦1.65 is indicated by four stars (****))”. Further, in data set [2], the EC (1.5-fold) was no more than 0.1 µM.
Take `O=c1oc(-c2ccc3c(c2)OC(F)(F)O3)cc2ccc(N3CCNCC3)cc12` [Cpd 6, 3-(2,2-difluoro-1,3-benzodioxol-5-yl)-7-(piperazin-1-yl)-1H-isochromen-1-one]: the melting point fell in the range of 220 to 222 °C. Further, the “maximum fold (Fold) increase” value in data set [1] was “* (A maximum fold increase of ≦1.2 is indicated by one star (*))”. Moreover, in data set [2], the EC (1.5-fold) was in the range of 1 to 3 µM.
Consider `Cc1cn2cc(-c3cc4ccc(N5CCC(N(C)C)CC5)cc4c(=O)o3)nc2c(C)n1` [Cpd 124, 7-[4-(dimethylamino)piperidin-1-yl]-3-(6,8-dimethylimidazo[1,2-a]pyrazin-2-yl)-1H-isochromen-1-one], for which the melting point lay in the range of 274 to 276 °C. In data set [1], the “EC1.5x for Smn protein expression” value is “**** (an EC1.5×≦0.3 nM is indicated by four stars (****))”; the “maximum fold (Fold) increase” value was “**** (a fold increase between >1.5 and ≦1.65 is indicated by four stars (****))”. For the same compound, the EC (1.5-fold) in data set [2] was no more than 0.1 µM.
`Cc1cc2cc(-c3cc4ccc(N5CCNCC5)cc4c(=O)o3)ccc2o1` [Cpd 52, 3-(2-methyl-1-benzofuran-5-yl)-7-(piperazin-1-yl)-1H-isochromen-1-one] yielded a melting point of 206 to 208 °C. Further, in data set [1], the “EC1.5x for Smn protein expression” value was “* (An EC1.5× for Smn protein expression between >3 μM and <10 μM is indicated by one star (*))”; the “maximum fold (Fold) increase” value was “*** (a fold increase between >1.35 and ≦1.5 is indicated by three stars (***))”. In addition, the EC (1.5-fold) in data set [2] lay within 0.1 to 0.3 µM.
On to `COCCN1CCN(c2ccc3cc(-c4cn5cc(C)nc(C)c5n4)oc(=O)c3c2)C[C@@H]1C` [Cpd 146, 3-(6,8-dimethylimidazo[1,2-a]pyrazin-2-yl)-7-[(3S)-4-(2-methoxyethyl)-3-methylpiperazin-1-yl]-1H-isochromen-1-one], for which the melting point is 221 to 226 °C. For the same compound, in data set [1], the “EC1.5x for Smn protein expression” value is reported as “**** (an EC1.5×≦0.3 nM is indicated by four stars (****))” and the “maximum fold (Fold) increase” value is “***** (a fold increase >1.65 is indicated by five stars (*****))”. Further, the EC (1.5-fold) in data set [2] lay in the range of 0.1 to 0.3 µM.
`Cc1nc(Cl)cn2cc(-c3cc4ccc(N5C[C@@H](C)N[C@@H](C)C5)cc4c(=O)o3)nc12` [Cpd 110, 3-(6-chloro-8-methylimidazo[1,2-a]pyrazin-2-yl)-7-[(3R,5S)-3,5-dimethylpiperazin-1-yl]-1H-isochromen-1-one] had a melting point of 261 to 266 °C. Moreover, in data set [1], the “EC1.5x for Smn protein expression” value was “*** (an EC1.5× between >0.3 nM and ≦1 nM is indicated by three stars (***))”; the “maximum fold (Fold) increase” value was “**** (a fold increase between >1.5 and ≦1.65 is indicated by four stars (****))”. Besides, the EC (1.5-fold) in data set [2] lay within 0.3 to 1 µM.
Take `Cc1cn2cc(-c3cc4ccc(N5CCN(C(C)C)[C@H](C)C5)cc4c(=O)o3)nc2c(C)n1` [Cpd 144, 3-(6,8-dimethylimidazo[1,2-a]pyrazin-2-yl)-7-[(3R)-3-methyl-4-(propan-2-yl)piperazin-1-yl]-1H-isochromen-1-one]: the melting point fell in the range of 262 to 267 °C. In data set [1], the “EC1.5x for Smn protein expression” value is given as “**** (an EC1.5×≦0.3 nM is indicated by four stars (****))” and the “maximum fold (Fold) increase” value is reported as “***** (a fold increase >1.65 is indicated by five stars (*****))”. The EC (1.5-fold) in data set [2] was no more than 0.1 µM.
As for `COc1ccccc1-c1cc2ccc(N3CCN(C)CC3)cc2c(=O)o1` [Cpd 22, 3-(2-methoxyphenyl)-7-(4-methylpiperazin-1-yl)-1H-isochromen-1-one], the melting point fell in the range of 118 to 120 °C. In addition, the “maximum fold (Fold) increase” value in data set [1] was “* (A maximum fold increase of ≦1.2 is indicated by one star (*))”. Besides, in data set [2], the EC (1.5-fold) was 1 to 3 µM.
In the case of `COc1ccc(-c2cc3ccc(N4CCN[C@@H](C)C4)cc3c(=O)o2)cc1Cl` [Cpd 46, 3-(3-chloro-4-methoxyphenyl)-7-[(3S)-3-methylpiperazin-1-yl]-1H-isochromen-1-one], the melting point lay in the range of 187 to 189 °C. For the same compound, in data set [1], the “EC1.5x for Smn protein expression” value is “*** (an EC1.5× between >0.3 nM and ≦1 nM is indicated by three stars (***))”; the “maximum fold (Fold) increase” value was “**** (a fold increase between >1.5 and ≦1.65 is indicated by four stars (****))”. Besides, the EC (1.5-fold) in data set [2] is 0.1 to 0.3 µM.
